Measured values reported in US20070161637A1, “Substituted pyridin-2-ylamine analogues” (Neurogen Corporation, priority 2003, published 2007).

biological target: T1, human capsaicin receptor (Homo sapiens, UniProt Q8NER1); test: Calcium mobilization assay, determination of antagonist activity (Example 6); type: cell-based; settings: concentration giving 50% decrease in the fluorescence response of cells expressing human capsaicin receptor exposed to capsaicin
T1 construct: transfected with the pBK-CMV expression construct encoding the full length human capsaicin receptor; expressed in transfected cells; host or cells: HEK293, stably transfected clonal lines, plasmid pBK-CMV
T1 sequence (Q8NER1 whole entry): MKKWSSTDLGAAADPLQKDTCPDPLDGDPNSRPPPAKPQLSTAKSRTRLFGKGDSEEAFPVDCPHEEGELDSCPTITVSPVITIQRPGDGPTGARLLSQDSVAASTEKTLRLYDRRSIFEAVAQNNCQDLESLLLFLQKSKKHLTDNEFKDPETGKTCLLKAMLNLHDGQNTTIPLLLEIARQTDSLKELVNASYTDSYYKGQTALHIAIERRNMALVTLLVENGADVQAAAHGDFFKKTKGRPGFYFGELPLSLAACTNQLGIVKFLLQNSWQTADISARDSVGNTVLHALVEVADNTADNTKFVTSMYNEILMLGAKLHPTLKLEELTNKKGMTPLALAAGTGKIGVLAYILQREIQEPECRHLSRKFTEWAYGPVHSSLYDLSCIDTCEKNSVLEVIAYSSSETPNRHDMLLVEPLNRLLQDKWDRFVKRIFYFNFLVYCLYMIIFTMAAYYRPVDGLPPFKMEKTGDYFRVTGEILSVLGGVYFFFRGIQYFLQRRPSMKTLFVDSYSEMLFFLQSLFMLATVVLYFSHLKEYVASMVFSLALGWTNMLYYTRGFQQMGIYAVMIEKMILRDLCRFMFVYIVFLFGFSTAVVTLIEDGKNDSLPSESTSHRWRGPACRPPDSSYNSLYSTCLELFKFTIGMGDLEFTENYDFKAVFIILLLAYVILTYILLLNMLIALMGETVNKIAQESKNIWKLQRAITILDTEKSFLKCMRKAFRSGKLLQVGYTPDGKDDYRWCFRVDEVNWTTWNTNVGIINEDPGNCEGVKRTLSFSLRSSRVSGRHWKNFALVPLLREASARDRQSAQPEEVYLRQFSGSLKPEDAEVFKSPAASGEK
Procedure: A cDNA encoding full length human capsaicin receptor (SEQ ID NO:1, 2 or 3 of U.S. Pat. No. 6,482,611) was subcloned in the plasmid pBK-CMV (Stratagene, La Jolla, Calif.) for recombinant expression in mammalian cells.
Human embryonic kidney (HEK293) cells were transfected with the pBK-CMV expression construct encoding the full length human capsaicin receptor using standard methods. The transfected cells were selected for two weeks in media containing G418 (400 μg/ml) to obtain a pool of stably transfected cells. Independent clones were isolated from this pool by limiting dilution to obtain clonal stable cell lines for use in subsequent experiments.
Cells transfected with expression plasmids (as described in Example 4) and thereby expressing human capsaicin receptor are seeded and grown to 70-90% confluency in FALCON black-walled, clear-bottomed 96-well plates (#3904, BECTON-DICKINSON, Franklin Lakes, N.J.). The culture medium is emptied from the 96 well plates and FLUO-3 AM calcium sensitive dye (Molecular Probes, Eugene, Oreg.) is added to each well (dye solution: 1 mg FLUO-3 AM, 440 μL DMSO and 440 μl 20% pluronic acid in DMSO, diluted 1:250 in Krebs-Ringer HEPES (KRH) buffer (25 mM HEPES, 5 mM KCl, 0.96 mM NaH2PO4, 1 mM MgSO4, 2 mM CaCl2, 5 mM glucose, 1 mM probenecid, pH 7.4), 50 μl diluted solution per well). Plates are covered with aluminum foil and incubated at 37° C. for 1-2 hours in an environment containing 5% CO2. After the incubation, the dye is emptied from the plates, and the cells are washed once with KRH buffer, and resuspended in KRH buffer.
To measure the ability of a test compound to agonize or antagonize a calcium mobilization response in cells expressing capsaicin receptors to capsaicin or other vanilloid agonist, the EC50 of the agonist capsaicin is first determined. An additional 20 μl of KRH buffer and 1 μl DMSO is added to each well of cells, prepared as described above. 100 μl capsaicin in KRH buffer is automatically transferred by the FLIPR instrument to each well. Capsaicin-induced calcium mobilization is monitored using either FLUOROSKAN ASCENT (Labsystems; Franklin, Mass.) or FLIPR (fluorometric imaging plate reader system; Molecular Devices, Sunnyvale, Calif.) instruments. Data obtained between 30 and 60 seconds after agonist application are used to generate an 8-point concentration response curve, with final capsaicin concentrations of 1 nM to 3 μM. […] software (Synergy Software, Reading, Pa.) is used to fit the data to the equation: y=a*(1/(1+(b/x)^c)) to determine the 50% excitatory concentration (EC50) for the response. In this equation, y is the maximum fluorescence signal, x is the concentration of the agonist or antagonist (in this case, capsaicin), a is the Emax, b corresponds to the EC50 value and c is the Hill coefficient. Determination Agonist Activity
Test compounds are dissolved in DMSO, diluted in 20 μl KRH buffer so that the final concentration of test compounds in the assay well is between 1 μM and 5 μM, and added to cells prepared as described above. The 96 well plates containing prepared cells and test compounds are incubated in the dark, at room temperature for 0.5 to 6 hours. It is important that the incubation not continue beyond 6 hours. Just prior to determining the fluorescence response, 100 μl capsaicin in KRH buffer at twice the EC50 concentration determined as described above is automatically added by the FLIPR instrument to each well of the 96 well plate for a final sample volume of 200 μl and a final capsaicin concentration equal to the EC50. The final concentration of test compounds in the assay wells is between 1 μM and 5 μM.

| IC50 | Structure (SMILES) |
| --- | --- |
| ≤ 1000 nM | COc1ccccc1CNc1nc(NCc2ccccc2OC)nc(Nc2ccc(C(C)(C)C)cc2)n1 [Compound 55, N-(4-tert-Butyl-phenyl)-N′,N″-bis-(2-methoxy-benzyl)-[1,3,5]triazine-2,4,6-triamine] |
| ≤ 1000 nM | FC(F)(F)c1ccc(Nc2nc(OCc3ccccc3C(F)(F)F)nc(-c3ccccc3C(F)(F)F)n2)cc1 [Compound 10, [4-(2-Trifluoromethyl-benzyloxy)-6-(2-trifluoromethyl-phenyl)-[1,3,5]triazin-2-yl]-(4-trifluoromethyl-phenyl)-amine] |
| ≤ 1000 nM | Cc1nc(NCc2ccccc2Cl)nc(Nc2ccc(C(C)(C)C)cc2)n1 [Compound 40, N-(4-tert-Butyl-phenyl)-N′-(2-chloro-benzyl)-6-methyl-[1,3,5]triazine-2,4-diamine] |
| ≤ 1000 nM | COc1ccccc1CNc1nc(Cl)nc(Nc2ccc(C(C)(C)C)cc2)n1 [Compound 35, N-(4-tert-Butyl-phenyl)-6-chloro-N′-(2-methoxy-benzyl)-[1,3,5]triazine-2,4-diamine] |
| ≤ 1000 nM | FC(F)(F)c1ccc(Nc2nc(OCc3ccccc3C(F)(F)F)nc(-c3ccccc3)n2)cc1 [Compound 22, [4-Phenyl-6-(2-trifluoromethyl-benzyloxy)-[1,3,5]triazin-2-yl]-(4-trifluoromethyl-phenyl)-amine] |
| ≤ 1000 nM | CC(C)(C)c1ccc(Nc2nc(OCc3ncccc3Cl)nc(OCc3ncccc3Cl)n2)cc1 [Compound 16, [4,6-Bis-(3-chloro-pyridin-2-ylmethoxy)-[1,3,5]triazin-2-yl]-(4-tert-butyl-phenyl)-amine] |
| ≤ 1000 nM | CC(C)(C)c1ccc(Nc2cc(NCc3ccc(Cl)cc3)ncn2)cc1 [Compound 52, N-(4-tert-Butyl-phenyl)-N′-(4-chloro-benzyl)-pyrimidine-4,6-diamine] |
| ≤ 1000 nM | CC(C)(C)c1ccc(Nc2nc(Cl)nc(N3CCc4ccccc4C3)n2)cc1 [Compound 5, (4-tert-Butyl-phenyl)-[4-chloro-6-(3,4-dihydro-1H-isoquinolin-2-yl)-[1,3,5]triazin-2-yl]-amine] |
| ≤ 1000 nM | CC(C)CNc1nc(Nc2ccc(C(F)(F)F)cc2)nc(OCc2ccccc2C(F)(F)F)n1 [Compound 66, N-Isobutyl-6-(2-trifluoromethyl-benzyloxy)-N′-(4-trifluoromethyl-phenyl)-[1,3,5]triazine-2,4-diamine] |
| ≤ 1000 nM | COc1ccccc1CNc1cc(Nc2ccc(C(C)(C)C)cc2)ncn1 [Compound 47, N-(4-tert-Butyl-phenyl)-N′-(2-methoxy-benzyl)-pyrimidine-4,6-diamine] |
| ≤ 1000 nM | FC(F)(F)c1ccc(Nc2nc(Cl)nc(OCc3ccccc3C(F)(F)F)n2)cc1 [Compound 18, [4-Chloro-6-(2-trifluoromethyl-benzyloxy)-[1,3,5]triazin-2-yl]-(4-trifluoromethyl-phenyl)-amine] |
| ≤ 1000 nM | CNc1nc(NCc2ccccc2Cl)nc(Nc2ccc(C(C)(C)C)cc2)n1 [Compound 41, N-(4-tert-Butyl-phenyl)-N′-(2-chloro-benzyl)-N″-methyl-[1,3,5]triazine-2,4,6-triamine] |
| ≤ 1000 nM | CC(C)(C)c1ccc(Nc2nc(OCc3ccccc3F)nc(OCc3ccccc3F)n2)cc1 [Compound 12, [4,6-Bis-(2-fluoro-benzyloxy)-[1,3,5]triazin-2-yl]-(4-tert-butyl-phenyl)-amine] |
| ≤ 1000 nM | FC(F)(F)c1ccc(Nc2nc(NCCN3CCOCC3)nc(OCc3ccccc3C(F)(F)F)n2)cc1 [Compound 28, N-(2-Morpholin-4-yl-ethyl)-6-(2-trifluoromethyl-benzyloxy)-N′-(4-trifluoromethyl-phenyl)-[1,3,5]triazine-2,4-diamine] |
| ≤ 1000 nM | COc1cc2c(cc1OC)CN(c1nc(Cl)nc(Nc3ccc(C(C)(C)C)cc3)n1)CC2 [Compound 6, (4-tert-Butyl-phenyl)-[4-chloro-6-(6,7-dimethoxy-3,4-dihydro-1H-isoquinolin-2-yl)-[1,3,5]triazin-2-yl]-amine] |
| ≤ 1000 nM | FC(F)(F)c1ccc(Nc2nc(OCc3ccccc3C(F)(F)F)nc(-c3cccnc3)n2)cc1 [Compound 23, [4-Pyridin-3-yl-6-(2-trifluoromethyl-benzyloxy)-[1,3,5]triazin-2-yl]-(4-trifluoromethyl-phenyl)-amine] |
| ≤ 1000 nM | CC(C)(C)c1ccc(Nc2nc(OCc3ccccc3C(F)(F)F)nc(OCc3ccccc3C(F)(F)F)n2)cc1 [Compound 14, [4,6-Bis-(2-trifluoromethyl-benzyloxy)-[1,3,5]triazin-2-yl]-(4-tert-butyl-phenyl)-amine] |
| ≤ 1000 nM | CC(C)(O)CCNc1nc(Nc2ccc(C(F)(F)F)cc2)nc(OCc2ccccc2C(F)(F)F)n1 [Compound 24, 2-Methyl-4-[4-(2-trifluoromethyl-benzyloxy)-6-(4-trifluoromethyl-phenylamino)-[1,3,5]triazin-2-ylamino]-butan-2-ol] |
| ≤ 1000 nM | CC(C)(C)c1ccc(Nc2cc(OCc3ccccc3C(F)(F)F)ncn2)cc1 [Compound 8, (4-tert-Butyl-phenyl)-[6-(2-trifluoromethyl-benzyloxy)-pyrimidin-4-yl]-amine] |
| ≤ 1000 nM | CC(C)(C)c1ccc(Nc2cc(NCc3ccccc3)ncn2)cc1 [Compound 61, N-Benzyl-N′-(4-tert-butyl-phenyl)-pyrimidine-4,6-diamine] |
| ≤ 1000 nM | CCOc1nc(NCc2ccccc2Cl)nc(Nc2ccc(C(C)(C)C)cc2)n1 [Compound 38, N-(4-tert-Butyl-phenyl)-N′-(2-chloro-benzyl)-6-ethoxy-[1,3,5]triazine-2,4-diamine] |
| ≤ 1000 nM | CC(C)(C)c1ccc(Nc2cc(NCc3ccccc3F)ncn2)cc1 [Compound 44, N-(4-tert-Butyl-phenyl)-N′-(2-fluoro-benzyl)-pyrimidine-4,6-diamine] |
| ≤ 1000 nM | COc1ccccc1CNc1ncnc(Nc2ccc(C(C)(C)C)cc2)n1 [Compound 45, N-(4-tert-Butyl-phenyl)-N′-(2-methoxy-benzyl)-[1,3,5]triazine-2,4-diamine] |
| ≤ 1000 nM | CC(C)(C)c1ccc(Nc2nc(Cl)nc(NCc3ccccc3Cl)n2)cc1 [Compound 33, N-(4-tert-Butyl-phenyl)-6-chloro-N′-(2-chloro-benzyl)-[1,3,5]triazine-2,4-diamine] |
| ≤ 1000 nM | CC(C)(C)c1ccc(Nc2nc(Cl)nc(NCc3ccccc3F)n2)cc1 [Compound 34, N-(4-tert-Butyl-phenyl)-6-chloro-N′-(2-fluoro-benzyl)-[1,3,5]triazine-2,4-diamine] |
| ≤ 1000 nM | CCOc1nc(Nc2ccc(C(F)(F)F)cc2)nc(OCc2ccccc2C(F)(F)F)n1 [Compound 20, [4-Ethoxy-6-(2-trifluoromethyl-benzyloxy)-[1,3,5]triazin-2-yl]-(4-trifluoromethyl-phenyl)-amine] |
| ≤ 1000 nM | COc1ccccc1COc1nc(Cl)nc(Nc2ccc(C(C)(C)C)cc2)n1 [Compound 3, (4-tert-Butyl-phenyl)-[4-chloro-6-(2-methoxy-benzyloxy)-[1,3,5]triazin-2-yl]-amine] |
| ≤ 1000 nM | CCCCNc1nc(Nc2ccc(C(F)(F)F)cc2)nc(OCc2ccccc2C(F)(F)F)n1 [Compound 62, N-Butyl-6-(2-trifluoromethyl-benzyloxy)-N′-(4-trifluoromethyl-phenyl)-[1,3,5]triazine-2,4-diamine] |
| ≤ 1000 nM | COc1cccc(CNc2cc(Nc3ccc(C(C)(C)C)cc3)ncn2)c1 [Compound 51, N-(4-tert-Butyl-phenyl)-N′-(3-methoxy-benzyl)-pyrimidine-4,6-diamine] |
| ≤ 1000 nM | FC(F)(F)c1ccc(Nc2nc(OCc3ccccc3C(F)(F)F)nc(N3CCOCC3)n2)cc1 [Compound 21, [4-Morpholin-4-yl-6-(2-trifluoromethyl-benzyloxy)-[1,3,5]triazin-2-yl]-(4-trifluoromethyl-phenyl)-amine] |
